This note sets out measurements from patent US6046329A, “Uracil derivatives” (Byk Gulden Lomberg Chemische Fabrik GmbH, priority 1994, dated 2000).

One experiment concerns the target T1, α1A receptor (Rattus norvegicus, UniProt P43140).
T1 construct: membranes from rat brain cortex; from tissue; host or cells: rat brain cortex membranes
T1 sequence (P43140 1-466): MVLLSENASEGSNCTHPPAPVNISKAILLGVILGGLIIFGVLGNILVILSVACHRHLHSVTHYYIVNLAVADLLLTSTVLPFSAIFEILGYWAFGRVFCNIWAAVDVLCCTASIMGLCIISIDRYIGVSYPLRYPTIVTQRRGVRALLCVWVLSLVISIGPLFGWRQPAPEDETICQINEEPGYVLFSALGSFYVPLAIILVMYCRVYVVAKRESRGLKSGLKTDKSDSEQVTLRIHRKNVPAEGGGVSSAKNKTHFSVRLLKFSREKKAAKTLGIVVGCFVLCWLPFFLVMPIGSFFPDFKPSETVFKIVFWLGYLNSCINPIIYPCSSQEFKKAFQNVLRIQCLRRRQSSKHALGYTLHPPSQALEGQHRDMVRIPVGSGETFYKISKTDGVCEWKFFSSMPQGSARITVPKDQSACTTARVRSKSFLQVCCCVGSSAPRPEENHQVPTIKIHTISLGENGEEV
In words: Radioligand binding with [3H]prazosine, affinity for α1A receptor subtype. The conditions noted are these: membranes from rat brain cortex, IC50 corrected according to Cheng and Prusoff, read-out: Receptor affinity α1A, expressed in pKI values (converted). How it is done:
(§1) The affinity of substances for α1 receptor subtypes was determined in radioligand binding studies using [^3 H]prazosine as a radioligand. 50-200 μg of membranes from rat brain cortex were incubated in a total volume of 0.5-1 ml with [^3 H]prazosine (0.2 to 0.5 nmol/l) in the presence of rising concentrations of substances. The incubation buffer used was 50 mmol/l tris/HCl pH 7.5, 1 mmol/l EDTA, 0.1 mmol/l PMSF. The nonspecific binding was determined in separate batches in the presence of 10 μmol/l of phentolamine or 1 μmol/l of prazosine. After 1 h at 37° C., the bound radioactivity was separated from the free radioactivity by rapid filtration of the incubation batch at 0° C. through glass fiber filters. The filters were washed twice with 3.5 ml each of cold filtration buffer (50 mmol/l tris/HCl pH 7.4, 10 mmol/l MgCl2, 10% polyethylene glycol 6000). The filter-bound radioactivity was determined by liquid scintillation counting. Substances with subtype selectivity for the α1 receptor subtypes were tested again in the presence of 3 nmol/l of WB 4101. WB4101 blocks the binding of [^3 H]prazosine to the α1A receptor subtype and the remaining binding corresponds to that to the α1B receptor.
(§2) For each substance, dose-response curves were plotted by means of nonlinear regression using the Inplot program (GraphPad, Sorento, Calif., USA). IC50 values were corrected by the concentration of the radioligand employed according to the formula of Cheng and Prusoff. The resulting KI values (see following table) represent the affinity of the respective substance for the tested receptor. The compounds according to the invention investigated according to the model illustrated in greater detail above have been provided in the following table with numbers which correspond to the numbers of these compounds in the examples.

A further experiment addresses T2, α1B receptor (Rattus norvegicus, UniProt P15823).
T2 construct: membranes from rat brain cortex; from tissue; host or cells: rat brain cortex membranes
T2 sequence (P15823 1-515): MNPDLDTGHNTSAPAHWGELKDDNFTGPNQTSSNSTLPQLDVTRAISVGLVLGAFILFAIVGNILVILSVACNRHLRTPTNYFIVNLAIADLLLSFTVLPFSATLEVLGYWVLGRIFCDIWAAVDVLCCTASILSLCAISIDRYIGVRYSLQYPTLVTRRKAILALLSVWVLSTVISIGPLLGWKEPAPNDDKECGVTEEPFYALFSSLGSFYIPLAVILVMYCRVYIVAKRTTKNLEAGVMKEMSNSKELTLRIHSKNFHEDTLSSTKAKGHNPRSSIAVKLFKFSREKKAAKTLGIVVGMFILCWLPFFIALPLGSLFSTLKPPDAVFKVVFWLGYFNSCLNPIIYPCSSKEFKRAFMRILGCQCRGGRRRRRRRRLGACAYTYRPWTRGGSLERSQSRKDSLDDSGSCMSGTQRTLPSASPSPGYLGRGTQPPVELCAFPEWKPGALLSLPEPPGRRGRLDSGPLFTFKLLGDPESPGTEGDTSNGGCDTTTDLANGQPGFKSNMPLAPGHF
In words: Radioligand binding with [3H]prazosine (in the presence of WB 4101), affinity for α1B receptor subtype. The conditions noted are these: membranes from rat brain cortex, subtype-selective substances tested again in the presence of 3 nmol/l WB 4101, Cheng and Prusoff, read-out: Receptor affinity α1B, expressed in pKI values (converted). How it is done:
as §1, §2

The next experiment addresses T3, 5-HT1A receptor (Sus scrofa, UniProt A0A4X1UTF5).
T3 construct: membranes from pig brain cortex; from tissue; host or cells: pig brain cortex membranes
T3 sequence (A0A4X1UTF5 1-422): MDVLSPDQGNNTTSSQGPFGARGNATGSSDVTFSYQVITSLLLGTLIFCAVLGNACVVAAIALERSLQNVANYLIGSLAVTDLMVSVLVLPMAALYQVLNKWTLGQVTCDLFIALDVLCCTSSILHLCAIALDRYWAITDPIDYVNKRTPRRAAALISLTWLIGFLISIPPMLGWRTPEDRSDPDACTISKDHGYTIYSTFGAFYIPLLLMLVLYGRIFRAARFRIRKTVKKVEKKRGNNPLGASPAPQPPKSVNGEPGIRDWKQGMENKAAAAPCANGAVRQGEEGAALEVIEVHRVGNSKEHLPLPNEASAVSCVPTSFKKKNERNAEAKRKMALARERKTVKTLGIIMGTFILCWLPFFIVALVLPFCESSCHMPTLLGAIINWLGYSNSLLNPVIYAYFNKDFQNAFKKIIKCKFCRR
Nature of the experiment: Radioligand binding with [3H]8-OH-DPAT, affinity for 5-HT1A receptor. As to conditions: membranes from pig brain cortex, IC50 corrected according to Cheng and Prusoff, read-out: Receptor affinity 5-HT1A, expressed in pKI values (converted). How it is done: The affinity of substances for the 5-HT1A receptor was determined in radioligand binding studies using [^3 H]8-OH-DPAT as a radioligand. 50-150 μg of membranes from pig brain cortex were incubated in a total volume of 0.25-0.5 ml with [^3 H]8-OH-DPAT (0.2 to 0.4 nmol/l) in the presence of rising concentrations of substances. The incubation buffer used was 50 mmol/l tris/HCl pH 8.2, 1 mmol/l MnCl2. The nonspecific binding was determined in separate batches in the presence of 10 μmol/l of 5-HT. After 30 min at 23° C., the bound radioactivity was separated from the free radioactivity by rapid filtration of the incubation batch at 0° C. through glass fiber filters. The filters were washed twice with 3.5 ml each of cold filtration buffer (50 mmol/l tris/HCl pH 7.4, 10 mmol/l MgCl2, 10% polyethylene glycol 6000). The filter-bound radioactivity was determined by liquid scintillation counting.
as §2

As for `CON=Cc1c(NCCCN2CCN(c3ccccc3OC)CC2)n(C)c(=O)n(C)c1=O` [Compound 15, 1,3-Dimethyl-5-methoxyiminomethyl-6-[[3-[4-(2-methoxyohenyl)-1-piperazinyl]propyl]amino]-2,4(1H,3H)-pyrimidinedione], the values for the Ki at α1A receptor, at α1B receptor and on 5-HT1A receptor were 5.01 nM, 126 nM and 1.58 nM, respectively.
In the case of `COc1ccccc1N1CCN(CCCNc2c(C=NO)c(=O)n(C)c(=O)n2C)CC1` [Compound 16, 1,3-Dimethyl-5-hydroxyiminomethyl-6-[[3-[4-(2-methoxphenyl)-1-piperazinyl]propyl]amino]-2,4(1H,3H)-pyrimidinedione], the Ki at α1A receptor is 2 nM; on α1B receptor, 50.1 nM; at 5-HT1A receptor it was 1 nM.
Taken in the same sequence, the figures for `COc1ccccc1N1CCN(CCCNc2c(OC)c(=O)n(C)c(=O)n2C)CC1` [Compound 17] were 50.1 nM, 50.1 nM and 2.51 nM.
In the same order, the values of `COc1ccccc1N1CCN(CCCNC2=CC(=O)N(C)S(=O)(=O)N2C)CC1` [Compound 18, 5-{3-[4-(2-Methoxyphenyl)piperazin-1-yl]-propylamino}-2,6-dimethyl-1,1-dioxo-6H-[1,2,6]thiadiazin-3-one] are 6.31 nM, 126 nM and 15.8 nM.
Regarding `COc1ccccc1N1CCN(CCCNc2cc(=S)n(C)c(=O)n2C)CC1` [Compound 19, 6-{3-[4-(2-Methoxyphenyl)piperazin-1-yl]-propylamino}-1,3-dimethyl-4-thioxo-3,4-dihydro-1H-pyrimidin-2-one], the Ki is 31.6 nM at α1A receptor, 31.6 nM on α1B receptor and 10 nM at 5-HT1A receptor.
On to `COc1cc(N)ccc1N1CCN(CCCNc2c(C)c(=O)n(C)c(=O)n2C)CC1` [Compound 20, 1,3,5-Trimethyl-6-[[3-[4-(4-amino-2-methoxyphenyl)-1-piperazinyl]propyl]amino]-2,4(1H,3H)-pyrimidinedione], for which the Ki on α1A receptor is 100 nM; at α1B receptor, 6310 nM; at 5-HT1A receptor, 2 nM.
On to `COc1cc(NC(C)=O)ccc1N1CCN(CCCNc2c(C)c(=O)n(C)c(=O)n2C)CC1` [Compound 21, 1,3,5-Trimethyl-6-[[3-[4-(4-acetylamino-2-methoxyphenyl)-1-piperazinyl]propyl]amino]-2,4(1H,3H)pyrimidinedione], for which the Ki on α1A receptor was greater than 10000 nM; at α1B receptor, greater than 10000 nM; at 5-HT1A receptor, 5.01 nM.
